Experimental data published in the supplement of paper PMC10883282.

What was measured:
Test in all cases: relative viability vs DMSO control (72 h) (fraction); higher = more viable cells
VA-ES-BJ = tested on: VA-ES-BJ
Method in brief: (§1)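 After seeding at densities set for 80–90% confluence in 384-well plates, sarcoma cell lines waited 24 h before 2.5 µl of serially diluted compound was added. Source plates held 10 mM down to 0.0002 mM. Plates were incubated 72 h at 37 °C with 5% CO2, with 0.1% DMSO vehicle and a 5 µM positive control, and relative viability was taken from ATPLite as percent growth averaged over up to triplicate wells, with 1 set as full and 0 as none.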

SW982 = tested on: SW982
Method in brief: as §1

SW684 = tested on: SW684
Method in brief: as §1

G401 = tested on: G401
Method in brief: as §1

A204 = tested on: A204
Method in brief: as §1

KHOS-NP = tested on: KHOS-NP
Method in brief: as §1

SK-ES-1 = tested on: SK-ES-1
Method in brief: as §1

HS729 = tested on: HS729
Method in brief: as §1

RD-ES = tested on: RD-ES
Method in brief: as §1

SK-LMS-1 = tested on: SK-LMS-1
Method in brief: as §1

HT1080 = tested on: HT1080
Method in brief: as §1

SW872 = tested on: SW872
Method in brief: as §1

C=CC(=O)N1CCC(CNc2ncnc(N)c2-c2ccc(Oc3ccccc3)cc2)CC1 [Evobrutinib]
Details | relative viability
A204, 0.00017 µM | 1.1
A204, 0.00051 µM | 1.16
A204, 0.00152 µM | 1.16
A204, 0.00457 µM | 1.11
A204, 0.01372 µM | 1.02
A204, 0.04115 µM | 1.05
A204, 0.1235 µM | 1.07
A204, 0.3704 µM | 1.04
A204, 1.111 µM | 1.07
A204, 3.333 µM | 1.02
A204, 10 µM | 0.871
G401, 0.00017 µM | 1.05
G401, 0.00051 µM | 1.01
G401, 0.00152 µM | 1.01
G401, 0.00457 µM | 1.02
G401, 0.01372 µM | 1.03
G401, 0.04115 µM | 1.03
G401, 0.1235 µM | 1
G401, 0.3704 µM | 1.02
G401, 1.111 µM | 0.982
G401, 3.333 µM | 1
G401, 10 µM | 0.894
HS729, 0.00017 µM | 1.08
HS729, 0.00051 µM | 1.09
HS729, 0.00152 µM | 1.04
HS729, 0.00457 µM | 1.07
HS729, 0.01372 µM | 1.03
HS729, 0.04115 µM | 0.991
HS729, 0.1235 µM | 1.01
HS729, 0.3704 µM | 1.01
HS729, 1.111 µM | 0.978
HS729, 3.333 µM | 0.938
HS729, 10 µM | 0.862
HT1080, 0.00017 µM | 1.11
HT1080, 0.00051 µM | 1.1
HT1080, 0.00152 µM | 1.1
HT1080, 0.00457 µM | 1.14
HT1080, 0.01372 µM | 1.082
HT1080, 0.04115 µM | 1.08
HT1080, 0.1235 µM | 1.091
HT1080, 0.3704 µM | 1.078
HT1080, 1.111 µM | 1.07
HT1080, 3.333 µM | 1.1
HT1080, 10 µM | 1.08
KHOS-NP, 0.00017 µM | 1.11
KHOS-NP, 0.00051 µM | 1.13
KHOS-NP, 0.00152 µM | 1.13
KHOS-NP, 0.00457 µM | 1.13
KHOS-NP, 0.01372 µM | 1.12
KHOS-NP, 0.04115 µM | 1.128
KHOS-NP, 0.1235 µM | 1.12
KHOS-NP, 0.3704 µM | 1.12
KHOS-NP, 1.111 µM | 1.12
KHOS-NP, 3.333 µM | 1.12
KHOS-NP, 10 µM | 1.12
RD-ES, 0.00017 µM | 0.985
RD-ES, 0.00051 µM | 1
RD-ES, 0.00152 µM | 0.99
RD-ES, 0.00457 µM | 1
RD-ES, 0.01372 µM | 1
RD-ES, 0.04115 µM | 1.03
RD-ES, 0.1235 µM | 1.01
RD-ES, 0.3704 µM | 0.981
RD-ES, 1.111 µM | 0.9603
RD-ES, 3.333 µM | 0.976
RD-ES, 10 µM | 0.946
SK-ES-1, 0.00017 µM | 1.12
SK-ES-1, 0.00051 µM | 1.14
SK-ES-1, 0.00152 µM | 1.1
SK-ES-1, 0.00457 µM | 1.04
SK-ES-1, 0.01372 µM | 1.04
SK-ES-1, 0.04115 µM | 1.09
SK-ES-1, 0.1235 µM | 1.05
SK-ES-1, 0.3704 µM | 1.06
SK-ES-1, 1.111 µM | 1.03
SK-ES-1, 3.333 µM | 1.01
SK-ES-1, 10 µM | 1.02
SK-LMS-1, 0.00017 µM | 1.08
SK-LMS-1, 0.00051 µM | 1.1
SK-LMS-1, 0.00152 µM | 1.08
SK-LMS-1, 0.00457 µM | 1.08
SK-LMS-1, 0.01372 µM | 1.04
SK-LMS-1, 0.04115 µM | 1.11
SK-LMS-1, 0.1235 µM | 1.11
SK-LMS-1, 0.3704 µM | 1.05
SK-LMS-1, 1.111 µM | 1.08
SK-LMS-1, 3.333 µM | 0.997
SK-LMS-1, 10 µM | 0.981
SW684, 0.00017 µM | 1.15
SW684, 0.00051 µM | 1.19
SW684, 0.00152 µM | 1.2
SW684, 0.00457 µM | 1.22
SW684, 0.01372 µM | 1.2
SW684, 0.04115 µM | 1.16
SW684, 0.1235 µM | 1.22
SW684, 0.3704 µM | 1.18
SW684, 1.111 µM | 1.19
SW684, 3.333 µM | 1.19
SW684, 10 µM | 1.174
SW872, 0.00017 µM | 1.05
SW872, 0.00051 µM | 1.056
SW872, 0.00152 µM | 1.04
SW872, 0.00457 µM | 1.04
SW872, 0.01372 µM | 1.03
SW872, 0.04115 µM | 1.03
SW872, 0.1235 µM | 1.07
SW872, 0.3704 µM | 1.04
SW872, 1.111 µM | 1.02
SW872, 3.333 µM | 1.03
SW872, 10 µM | 1.01
SW982, 0.00017 µM | 1.04
SW982, 0.00051 µM | 1.09
SW982, 0.00152 µM | 1.11
SW982, 0.00457 µM | 1.07
SW982, 0.01372 µM | 1.08
SW982, 0.04115 µM | 1.068
SW982, 0.1235 µM | 1.086
SW982, 0.3704 µM | 1.07
SW982, 1.111 µM | 1.06
SW982, 3.333 µM | 1.07
SW982, 10 µM | 1.12
VA-ES-BJ, 0.00017 µM | 1.1
VA-ES-BJ, 0.00051 µM | 1.08
VA-ES-BJ, 0.00152 µM | 1.07
VA-ES-BJ, 0.00457 µM | 1.08
VA-ES-BJ, 0.01372 µM | 1.09
VA-ES-BJ, 0.04115 µM | 1.043
VA-ES-BJ, 0.1235 µM | 1.06
VA-ES-BJ, 0.3704 µM | 1.06
VA-ES-BJ, 1.111 µM | 1.06
VA-ES-BJ, 3.333 µM | 1.1
VA-ES-BJ, 10 µM | 1.1
